Assay results as given in patent publication US5155121A, “Phenylsulphonamide substituted pyridinealkene- and aminooxyalkanecarboxylic acid derivatives” (Bayer Aktiengesellschaft, priority 1990, dated 1992).

system: platelet aggregation; assay: Platelet aggregation-inhibiting action (TAI), collagen-induced, turbidometric, in platelet-rich citrate plasma; format: cell-based; conditions: Homo sapiens, 0.1 h, range of the minimum effective concentration, PRP from healthy donors, 37° C., 6 minutes, read-out: TAI threshold concentration
Procedure: Blood from healthy donors of both sexes was used for the determination of the platelet aggregation-inhibiting action. As an anticoagulant, 9 parts of blood were admixed to one part of 3.8% strength aqueous sodium citrate solution. Platelet-rich citrate plasma (PRP)^1 is obtained from this blood by means of centrifugation (Jurgens/Beller, Klinische Methoden der Blutgerinnungsanalyse (Clinical Methods of Blood Coagulation Analysis); Thieme Verlag, Stuttgart, 1959).
For these investigations, 0.8 ml of (PRP)^1 and 0.1 ml of the active compound solution were preincubated in a water bath at 37° C. The platelet aggregation was then determined by the turbidometric method (Born, G.V.R., J. Physiol. (London), 162, 67, 1962) in an aggregometer at 37° C. (Therapeutische Berichte 47, 80-86, 1975). To this end, 0.1 ml of collagen, an aggregation-inducing agent, was added to the preincubated sample. The change in the optical density in the sample of the (PRP) was recorded during a period of 6 minutes and the result was determined after 6 minutes. To do this, the percentage inhibition was calculated compared to the control.
The range of the minimum effective concentration was given as the threshold concentration.

Row | SMILES | minimal effective concentration [µg/mL]
1 | O=C(O)CCCCCON=C(c1cccnc1)c1cccc(NS(=O)(=O)c2ccc(Cl)cc2)c1 [XII] | 1 to 3
2 | O=C(O)CCCCC=C(c1cccnc1)c1cccc(NS(=O)(=O)c2ccc(Cl)cc2)c1 (mixture of isomers) [Example XV] | 3 to 10
3 | O=C(O)CCCCON=C(c1cccnc1)c1cccc(NS(=O)(=O)c2ccc(F)cc2)c1 [II] | 1 to 3
4 | O=C(O)CCCCCCON=C(c1cccnc1)c1cccc(NS(=O)(=O)c2ccc(Cl)cc2)c1 (mixture of isomers) [XIII, (E/Z)-7-[[[3-Pyridinyl-3-(4-chlorophenylsulphonamido)phenyl]methylene]iminooxy]heptane-carboxylic acid] | > 10
5 | O=C(O)CCCCON=C(c1cccnc1)c1cccc(NS(=O)(=O)c2ccc(Cl)cc2)c1 (mixture of isomers) [Example I, (E/Z)-5-[[[3-Pyridinyl-3-(4-chlorophenylsulphonamido)phenyl]methylene]iminooxy]pentanecarboxylic acid] | 0.3 to 1
6 | O=C(O)CCCCCC(c1cccnc1)c1cccc(NS(=O)(=O)c2ccc(Cl)cc2)c1 (stereo not drawn) [XXVI] | 0.1 to 0.3
